# Patent publication US20260356834A1, “ANTICONVULSIVE COMPOUNDS AND USES THEREOF” (Jazz Pharmaceuticals Research UK Limite, priority 2023, published 2026)
# Marks after values point to notes of the source that are not given here.
# System: DBA/2 mice
# Test: mouse audiogenic seizure test
# Assay type: in vivo
# Details: for Clonic convulsion - presence, Total / Tonic convulsion - presence, Total / Wild running - presence, Total: number of mice, n = 10
# Description: The Audiogenic Seizure Test, which detects anticonvulsant activity, follows that described by Durmüller et al., 1993. Mice of the DBA/2 strain undergo an age-dependent sequence of convulsions (wild-running, clonic convulsion, tonic convulsion and respiratory arrest) within 60 seconds of exposure to a loud sound of 110-120 dB. The type of convulsions are consistent with aspects of generalised seizure in humans.
# Male DBA/2 mice (3-4 weeks old) were supplied by Janvier Labs (53940 Le Genest-Saint-Isle, France); weight range 6-13 g at the beginning of the experiment. Animals were acclimatized to the Test Facility for 1 day after delivery and randomly housed in groups of 5 in macrolon cages on wood litter with free access to food and water.
# The animal house was maintained under artificial lighting (12 hours) between 7:00 and 19:00 in a controlled ambient temperature of 22±2 °C and relative humidity between 30-70%.
# Mice were individually transferred (at 3-5 minutes intervals) from the preparation room into an adjacent experimental room and body temperature was measured using a rectal thermometer (Digital Laboratory Thermometer: Model BAT-12). Immediately after, they were placed in a Plexiglas jar (Diameter=40 cm; Height=35 cm) mounted with an electric bell (110-120 dB, supplier Leroy Merlin, France). Upon activating the bell, the occurrences and latencies to wild running fits, clonic and tonic seizures were measured. Deaths were also recorded. The bell was activated until a tonic seizure occurred, or for a maximum of 60 seconds.
# The experiment included groups of 10 mice per group. Experimenters were only partially blinded to treatment group as pre-treatment times were different.
# The test substance was evaluated at various doses, administered i.p. (10 ml/kg) 15 or 30 minutes before the test, and compared with a vehicle control group.
# Due to the number of animals tested, the experiment was divided in 2 sub-experiments on 2 separate days (7 days apart) with 5 mice per group in each sub-experiment.
# Data were tested for normality using d'Agostino-Pearson Test and found to not follow a normal distribution. Statistical outliers were not identified or removed because no behavioural outliers were identified. Quantitative data (latencies) with the test substance were analyzed by comparing treated groups with vehicle control using Kruskal-Wallis test followed by Dunn's multiple comparisons test. Quantitative data with the reference substance were analyzed using Mann-Whitney U test. Quantal data (frequencies) were analyzed by comparing treated groups with vehicle control using Fisher's Exact Probability test.
smiles,measurement,setting,value
"CCCc1cc(O)c(-c2c(C)ccn3ccnc23)c(O)c1 [Compound 2, 2-(7-Methylimidazo[1,2-a]pyridin-8-yl)-5-propylbenzene-1,3-diol]",latency to tonic convulsions (significance in words),3 mg/kg i.p. vs vehicle,no significant differences
same,"Clonic convulsion - latency, Change from vehicle","3 mg/kg i.p., 30 min",+10%
same,"Clonic convulsion - presence, Change from vehicle","3 mg/kg i.p., 30 min",+25%
same,"Tonic convulsion - latency, Change from vehicle","3 mg/kg i.p., 30 min",+23%
same,"Tonic convulsion - presence, Change from vehicle","3 mg/kg i.p., 30 min",+14%
same,"Wild running - latency, Change from vehicle","3 mg/kg i.p., 30 min",+16%
same,"Wild running - presence, Change from vehicle","3 mg/kg i.p., 30 min",+11%
same,"Clonic convulsion - presence, Total","3 mg/kg i.p., 30 min",10
same,"Tonic convulsion - presence, Total","3 mg/kg i.p., 30 min",8
same,"Wild running - presence, Total","3 mg/kg i.p., 30 min",10
same,latency to tonic convulsions (significance in words),10 mg/kg i.p. vs vehicle,significantly increased
same,"Clonic convulsion - latency, Change from vehicle","10 mg/kg i.p., 30 min",+44%
same,"Clonic convulsion - presence, Change from vehicle","10 mg/kg i.p., 30 min",−13%
same,"Tonic convulsion - latency, Change from vehicle","10 mg/kg i.p., 30 min",+400%*
same,"Tonic convulsion - presence, Change from vehicle","10 mg/kg i.p., 30 min",−57%
same,"Wild running - latency, Change from vehicle","10 mg/kg i.p., 30 min",+27%
same,"Wild running - presence, Change from vehicle","10 mg/kg i.p., 30 min",−11%
same,"Clonic convulsion - presence, Total","10 mg/kg i.p., 30 min",7
same,"Tonic convulsion - presence, Total","10 mg/kg i.p., 30 min",3
same,"Wild running - presence, Total","10 mg/kg i.p., 30 min",8
same,latency to clonic convulsions (significance in words),30 mg/kg i.p. vs vehicle,significantly increased
same,latency to tonic convulsions (significance in words),30 mg/kg i.p. vs vehicle,significantly increased
same,latency to wild running (significance in words),30 mg/kg i.p. vs vehicle,significantly increased
same,"Clonic convulsion - latency, Change from vehicle","30 mg/kg i.p., 15 min",+574%**
same,"Tonic convulsion - latency, Change from vehicle","30 mg/kg i.p., 15 min",+400%**
same,"Wild running - latency, Change from vehicle","30 mg/kg i.p., 15 min",+1076%***
same,"Clonic convulsion - presence, Total","30 mg/kg i.p., 15 min",2
same,"Tonic convulsion - presence, Total","30 mg/kg i.p., 15 min",0
same,"Wild running - presence, Total","30 mg/kg i.p., 15 min",2
same,latency to clonic convulsions (significance in words),3 and 10 mg/kg i.p. vs vehicle,no significant differences
same,latency to wild running (significance in words),3 and 10 mg/kg i.p. vs vehicle,no significant differences
same,number of mice displaying clonic convulsions (significance in words),3 or 10 mg/kg i.p.,no significant differences
same,number of mice displaying tonic convulsions (significance in words),3 or 10 mg/kg i.p.,no significant differences
same,number of mice displaying wild running (significance in words),3 or 10 mg/kg i.p.,no significant differences
"CCCc1cc(O)c(-c2c(C)c(Cl)cn3ccnc23)c(O)c1 [Compound 4, 2-(6-Chloro-7-methylimidazo[1,2-a]pyridin-8-yl)-5-propylbenzene-1,3-diol]","Clonic convulsion - latency, Change from vehicle","3 mg/kg i.p., 30 min",−5%
same,"Clonic convulsion - presence, %","3 mg/kg i.p., 30 min",100%
same,"Clonic convulsion - presence, Change from vehicle","3 mg/kg i.p., 30 min",0%
same,"Tonic convulsion - latency, Change from vehicle","3 mg/kg i.p., 30 min",+6%
same,"Tonic convulsion - presence, %","3 mg/kg i.p., 30 min",90%
same,"Tonic convulsion - presence, Change from vehicle","3 mg/kg i.p., 30 min",−10%
same,"Wild running - latency, Change from vehicle","3 mg/kg i.p., 30 min",−2%
same,"Wild running - presence, %","3 mg/kg i.p., 30 min",100%
same,"Wild running - presence, Change from vehicle","3 mg/kg i.p., 30 min",0%
same,"Clonic convulsion - latency, Change from vehicle","10 mg/kg i.p., 30 min",+5%
same,"Clonic convulsion - presence, %","10 mg/kg i.p., 30 min",90%
same,"Clonic convulsion - presence, Change from vehicle","10 mg/kg i.p., 30 min",−10%
same,"Tonic convulsion - latency, Change from vehicle","10 mg/kg i.p., 30 min",+24%
same,"Tonic convulsion - presence, %","10 mg/kg i.p., 30 min",70%
same,"Tonic convulsion - presence, Change from vehicle","10 mg/kg i.p., 30 min",−30%
same,"Wild running - latency, Change from vehicle","10 mg/kg i.p., 30 min",+4%
same,"Wild running - presence, %","10 mg/kg i.p., 30 min",100%
same,"Wild running - presence, Change from vehicle","10 mg/kg i.p., 30 min",0%
same,latency to clonic convulsions (significance in words),30 mg/kg i.p. vs vehicle,significantly increased
same,latency to tonic convulsions (significance in words),30 mg/kg i.p. vs vehicle,significantly increased
same,latency to wild running (significance in words),30 mg/kg i.p. vs vehicle,significantly increased
same,"Clonic convulsion - latency, Change from vehicle","30 mg/kg i.p., 15 min",+368%**
same,"Clonic convulsion - presence, %","30 mg/kg i.p., 15 min",70%
same,"Clonic convulsion - presence, Change from vehicle","30 mg/kg i.p., 15 min",−30%
same,"Tonic convulsion - latency, Change from vehicle","30 mg/kg i.p., 15 min",+426%***
same,"Tonic convulsion - presence, %","30 mg/kg i.p., 15 min",10%
same,"Wild running - latency, Change from vehicle","30 mg/kg i.p., 15 min",+608%**
same,"Wild running - presence, %","30 mg/kg i.p., 15 min",70%
same,"Wild running - presence, Change from vehicle","30 mg/kg i.p., 15 min",−30%
same,latency to clonic convulsions (significance in words),60 mg/kg i.p. vs vehicle,significantly increased
same,latency to tonic convulsions (significance in words),60 mg/kg i.p. vs vehicle,significantly increased
same,latency to wild running (significance in words),60 mg/kg i.p. vs vehicle,significantly increased
same,"Clonic convulsion - latency, Change from vehicle","60 mg/kg i.p., 30 min, n = 9",+614%***
same,"Clonic convulsion - presence, %","60 mg/kg i.p., 30 min, n = 9",11%
same,"Tonic convulsion - latency, Change from vehicle","60 mg/kg i.p., 30 min, n = 9",+426%***
same,"Tonic convulsion - presence, %","60 mg/kg i.p., 30 min, n = 9",0%
same,"Wild running - latency, Change from vehicle","60 mg/kg i.p., 30 min, n = 9",+1150%***
same,"Wild running - presence, %","60 mg/kg i.p., 30 min, n = 9",22%
same,number of mice displaying clonic convulsions (significance in words),"3, 10 or 30 mg/kg i.p.",no significant differences
same,number of mice displaying wild running (significance in words),"3, 10 or 30 mg/kg i.p.",no significant differences
same,latency to clonic convulsions (significance in words),3 and 10 mg/kg i.p. vs vehicle,no significant differences
same,latency to wild running (significance in words),3 and 10 mg/kg i.p. vs vehicle,no significant differences
same,number of mice displaying tonic convulsions (significance in words),3 or 10 mg/kg i.p.,no significant differences
same,latency to tonic convulsions (significance in words),3 or 10 mg/kg i.p. vs vehicle,no significant differences
